These results are taken from PubChem BioAssay (NCI).

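Compound exposure: 48 hours, 5 concentrations, 96-well plates. TGI: concentration producing complete growth inhibition.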

Test in all cases: inhibition of tumour cell growth, NCI panel, 48 h
The test system of experiment [1] is NCI-H226 lung.
Experiment [2] deals with COLO 205 colon.
The test system of experiment [3] is TK-10 renal.
Experiment [4] deals with HT29 colon.
The test system of experiment [5] is SF-539 CNS.
Experiment [6] concerns 786-0 renal.
Experiment [7] relates to UACC-257 melanoma.
Experiment [8] relates to OVCAR-5 ovarian.
The test system of experiment [9] is SF-268 CNS.
Experiment [10] concerns CCRF-CEM leukemia.
Experiment [11] relates to LOX IMVI melanoma.
For experiment [12], the system named is UO-31 renal.
For experiment [13], the system named is HOP-92 NSCLC.
The test system of experiment [14] is OVCAR-4 ovarian.
Experiment [15] concerns MCF7 breast.
For experiment [16], the system named is HCT-116 colon.
Experiment [17] has as its system SF-295 CNS.
Experiment [18] deals with MDA-N.
Experiment [19] has as its system SR leukemia.
Experiment [20] concerns BT-549 breast.

In the case of `COC(=O)c1ccccc1/C=C1\Cc2ccc3c(c2C1=O)CCC3`, the TGI in [1], in [2], in experiment [3], in experiment [4], in [5] and in experiment [6] was greater than 100 µM throughout. For the same compound, the TGI in [7], in [8], in experiment [9], in experiment [10], in experiment [11] and in [12] was greater than 100 µM in each case. Also, the TGI in [13], in [14], in experiment [15], in experiment [16], in experiment [17] and in experiment [18] was greater than 100 µM throughout. Also, in [19], the TGI is greater than 100 µM.
As to `CN(C)CCNc1ncnc2nc(-c3ccccc3)c(-c3ccccc3)nc12`, the TGI in [1], in [2], in [3], in [4], in experiment [5] and in experiment [6] was greater than 100 µM throughout. Also, the TGI in experiment [7], in experiment [20], in experiment [8], in experiment [9], in experiment [10] and in experiment [11] was greater than 100 µM throughout. The TGI in experiment [12], in [15], in experiment [16] and in [18] was greater than 100 µM each time.
Take `O=S(=O)(N=[Se](=O)(c1ccccc1)c1ccccc1)c1ccccc1`: the TGI in [1], in [2], in [3], in experiment [4], in experiment [5] and in experiment [6] was greater than 100 µM in each case. Further, the TGI in [8], in [9], in experiment [10], in [11], in experiment [12] and in experiment [13] was greater than 100 µM throughout. Besides, the TGI in experiment [14], in experiment [15], in experiment [16], in experiment [17], in experiment [18] and in [19] was greater than 100 µM each time.
`COC(=O)C(Cc1c(-c2[nH]c3ccccc3c2CC(NC(C)=O)C(=O)OC)[nH]c2ccccc12)NC(C)=O` (stereo unspecified): the TGI in experiment [1], in experiment [2], in experiment [3], in experiment [4], in experiment [5] and in experiment [6] was greater than 100 µM each time. In addition, the TGI in [7], in experiment [20], in experiment [8], in experiment [9], in experiment [10] and in experiment [11] was greater than 100 µM each time. For the same compound, the TGI in experiment [12], in [13], in [16], in experiment [17] and in experiment [18] was greater than 100 µM throughout.
For the compound `O=[N+]([O-])c1ccc(C2=NOC(c3ccccc3)N2C23CC4CC(CC(C4)C2)C3)cc1` (stereo unspecified), the TGI was 89.9 µM in experiment [1]; 88.1 µM in experiment [2]; greater than 100 µM in [3]; 44.6 µM in experiment [4]; greater than 100 µM in experiment [5]; 57.9 µM in experiment [6]. The TGI was greater than 100 µM in [7]; 46 µM in experiment [20]; 53.2 µM in experiment [8]; greater than 100 µM in experiment [9]; 47.5 µM in [10]; 29.3 µM in experiment [11]. For the same compound, the TGI in experiment [12] was 67.3 µM; in experiment [14] it was greater than 100 µM; in experiment [15], 60.1 µM; in [16], 63.9 µM; in experiment [17] it was 66.6 µM; in experiment [18] it was 58 µM.
Consider `O=C(Cn1c2ccc(Br)cc2c2nc3ccccc3nc21)NNC(=O)NC1CCCCC1`, for which the TGI in [2], in experiment [3], in [5], in [6], in experiment [7] and in experiment [20] was greater than 100 µM in each case. The TGI in experiment [8] is greater than 100 µM; in experiment [9] it was greater than 100 µM; in experiment [10], 76.1 µM; in [11] it was greater than 100 µM; in experiment [12], 8.09 µM; in experiment [14] it was 42.9 µM. The TGI in experiment [15], in experiment [16], in experiment [17], in [18] and in experiment [19] was greater than 100 µM each time.
Turning to `CN(C)/C=N/c1cc(=O)n(C)c(=O)n1C`, the TGI in experiment [1], in experiment [2], in experiment [3], in experiment [4], in experiment [5] and in experiment [6] was greater than 100 µM each time. Also, the TGI in experiment [7], in experiment [20], in experiment [8], in experiment [9], in experiment [10] and in experiment [11] was greater than 100 µM throughout. In addition, the TGI in experiment [12], in [13], in experiment [14], in experiment [15], in experiment [16] and in experiment [17] was greater than 100 µM throughout. In [18], the TGI is greater than 100 µM.
For `COC(=O)c1ccccc1C1CN=NC12Cc1cc3c(cc1C2=O)CCC3` (stereo unspecified), the TGI in experiment [1], in experiment [2], in experiment [3], in experiment [4], in experiment [5] and in [6] was greater than 100 µM throughout. Also, the TGI in experiment [7], in experiment [20], in experiment [8], in experiment [9], in experiment [10] and in experiment [11] was greater than 100 µM each time. The TGI in experiment [12], in [13], in experiment [14], in experiment [15], in experiment [16] and in experiment [17] was greater than 100 µM each time. In experiment [18], this compound yielded a TGI greater than 100 µM.
In the case of `O=c1nc(N2CCCCC2)sc2[nH]c3ccccc3c12`, the TGI in experiment [2], in experiment [3], in experiment [4], in experiment [5], in experiment [6] and in experiment [7] was greater than 100 µM each time. For the same compound, the TGI in [20] was greater than 100 µM; in experiment [8], 24.8 µM; in experiment [9], greater than 100 µM; in [11], greater than 100 µM; in experiment [12] it was 54.9 µM; in experiment [13], greater than 100 µM. In addition, the TGI in experiment [14], in experiment [17], in experiment [18] and in [19] was greater than 100 µM each time.
On to `O=C(c1ccc(Cl)c(Cl)c1)N(C(=S)OC12CC3CC(CC(C3)C1)C2)c1ccccc1`, for which the TGI is greater than 100 µM in experiment [1]; 29.4 µM in experiment [2]; greater than 100 µM in [3]; greater than 100 µM in experiment [4]; greater than 100 µM in experiment [5]; greater than 100 µM in experiment [6]. Also, the TGI in experiment [7] is greater than 100 µM; in experiment [20] it was greater than 100 µM; in experiment [8] it was greater than 100 µM; in [9], greater than 100 µM; in experiment [10] it was greater than 100 µM; in [12] it was 64.3 µM. The TGI is greater than 100 µM in experiment [13]; greater than 100 µM in experiment [14]; greater than 100 µM in experiment [15]; 68.8 µM in experiment [16]; greater than 100 µM in [17]; greater than 100 µM in experiment [18].
Turning to `O=S(=O)(Cc1ccccc1)c1nnc(S(=O)(=O)c2ccc(Cl)cc2)s1`, the TGI in experiment [2] stood at 36.6 µM; in experiment [3] it was 41.9 µM; in [4], 60.7 µM; in experiment [5] it was 63.3 µM; in experiment [6] it was 49.5 µM; in [7] it was 48.8 µM. Further, the TGI in experiment [20] was 41.6 µM; in experiment [8], 56.8 µM; in experiment [9], 63.4 µM; in experiment [12] it was 44.5 µM; in experiment [14], greater than 100 µM; in [15], greater than 100 µM. The results for the TGI in [16], in [17] and in experiment [18] were 36 µM, 54.9 µM and 33 µM, respectively.
Turning to `COc1ccc(/C=N/NS(=O)(=O)c2ccc(/C=C3\NC(=O)NC3=O)cc2)cc1`, the TGI in [1], in experiment [2], in [3], in [4], in [6] and in [7] was greater than 100 µM each time. Also, the TGI was greater than 100 µM in experiment [20]; greater than 100 µM in experiment [8]; 86.9 µM in [9]; greater than 100 µM in experiment [10]; greater than 100 µM in experiment [11]; greater than 100 µM in experiment [12]. Besides, the TGI in experiment [13], in experiment [14], in experiment [15], in [16], in experiment [17] and in experiment [18] was greater than 100 µM each time.
`C=C(CN(C)C)C(=O)c1ccccc1`: the TGI stood at 36 µM in experiment [1]; 3.03 µM in experiment [2]; 13.4 µM in experiment [3]; 24.2 µM in experiment [4]; 27.1 µM in [5]; 13.5 µM in [6]. Moreover, the TGI in [7] was 27.6 µM; in [20], 45 µM; in experiment [8], 30.4 µM; in [9] it was greater than 58.2 µM; in [10], 3.17 µM; in [11], 15.4 µM. The TGI in experiment [12] was found to be 19.2 µM; in [13], 5.79 µM; in [14], 39.3 µM; in experiment [16], 16.7 µM; in experiment [17] it was 47.4 µM; in [18], 28.1 µM. In experiment [19], the TGI was greater than 60.5 µM.
On to `Cc1c(CN2CCOCC2)c(CN2CCOCC2)c(C)n1-c1ccc(Cl)cn1`, for which the TGI in experiment [1], in experiment [2], in experiment [3], in experiment [4], in experiment [6] and in experiment [7] was greater than 100 µM in each case. The TGI in experiment [20], in experiment [8], in [9], in experiment [10], in experiment [12] and in experiment [14] was greater than 100 µM throughout. The TGI in experiment [15], in [16], in [17], in [18] and in experiment [19] was greater than 100 µM throughout.
Consider `Cc1ccc(N=NC(=O)NNc2ccc(C)cc2Br)c(Br)c1`, for which the TGI was 62.8 µM in experiment [1]; 86.6 µM in experiment [3]; greater than 100 µM in [4]; 42.4 µM in [6]; 79.8 µM in [7]; 89.3 µM in experiment [20]. Besides, the TGI is 68.4 µM in experiment [8]; 97.2 µM in [9]; 21 µM in [10]; 34.5 µM in experiment [11]; 77.2 µM in experiment [12]; greater than 100 µM in experiment [14]. The TGI came to 41.3 µM in [15], 24.6 µM in experiment [16], 48.3 µM in [18] and 90.1 µM in experiment [19].
On to `CSc1ccccc1NC1=NCCO1`, for which the TGI in [1], in [2], in experiment [3], in experiment [4], in experiment [5] and in experiment [6] was greater than 100 µM in each case. Also, the TGI in [7], in experiment [8], in experiment [9], in [10], in experiment [11] and in experiment [12] was greater than 100 µM throughout. Moreover, the TGI in experiment [13], in experiment [14], in experiment [15], in [16], in experiment [17] and in [18] was greater than 100 µM throughout. This compound also returned a TGI in experiment [19] greater than 100 µM.
